In publication PMC5321434, “Dihydrobenz[e][1,4]oxazepin-2(3H)-ones, a new anthelmintic chemotype immobilising whipworm and reducing infectivity in vivo” (PLoS Neglected Tropical Diseases, 2017):
Where two headings read alike, the source gives them in different places.

What was measured:
[1] = system: adult T. muris; assay: Ex vivo adult T. muris automated motility assay (primary/secondary screen at 100 μM and dose-response); design: species or system Trichuris muris; settings: for COMBINED_SCREEN_ACTIVITY: combined primary and secondary screen minus log fold change in movement, adult T. muris; for COMBINED_SCREEN_ACTIVITY / PRIMARY_SCREEN_MINUS_LOG_FOLD_CHANGE_MOVEMENT / SECONDARY_SCREEN_MINUS_LOG_FOLD_CHANGE_MOVEMENT: 100 μM; for PRIMARY_SCREEN_MINUS_LOG_FOLD_CHANGE_MOVEMENT: primary screen; for PRIMARY_SCREEN_MINUS_LOG_FOLD_CHANGE_MOVEMENT / SECONDARY_SCREEN_MINUS_LOG_FOLD_CHANGE_MOVEMENT: adult T. muris motility; for SECONDARY_SCREEN_MINUS_LOG_FOLD_CHANGE_MOVEMENT: secondary screen
How it was run: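 Adult worms recovered from SCID mice at day 35 post-infection (200 eggs orally), one per well, in RPMI-1640 with penicillin/streptomycin and 1% DMSO. Compound at 100 μM final in primary screen, 24 h at 37 °C, 5% CO2; motility from pixel-variance imaging, dose-response by four-parameter log-logistic fit.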

[2] = system: CMT-93 murine rectal epithelial cells; assay: WST-8 cytotoxicity assay; type: cell-based, mouse; settings: CMT-93 cells, 72 hours, maximum tested concentration 100μM, n = 8, 95% confidence interval in parentheses
Protocol: (§1) CMT-93 murine rectal epithelial cells were maintained in Dulbecco's Modified Eagle's Medium (DMEM) with 10% fetal calf serum (FCS) and 1% penicillin-streptomycin solution (10,000U/ml). Cells were plated in 96-well tissue culture plates at a density of 2x10^2 cells per well in a volume of 100μl, and cultured for 96 hours (37°C, 5% CO2) until reaching 30% confluence. The growth medium was removed and replaced with treatment media (DMEM, 1% FCS, 1% penicillin-streptomycin solution, 100μl assay volume) supplemented with vehicle alone (DMSO), test compounds or chlorpromazine, a positive control for cytotoxicity (final concentrations from 0 to 100μM). Maximum vehicle concentration for all compounds was 0.5% DMSO. Cells were cultured with the test compounds for 72 hours before cytotoxicity measurement. The WST-8 assay was performed using the Cell Counting Kit– 8 (Sigma Aldrich # 96992). 10μl of the CCK-8 solution was added to each well, plates were incubated for a further 2 hours, before absorbance was measured at 450nm using a microplate reader. This assay measures the ability of metabolically active cells to reduce a water-soluble formazan dye. Results were analysed using GraphPad Prism and fitted using a log-logistic model.

[3] = system: CMT-93 murine rectal epithelial cells; assay: Neutral red cytotoxicity assay; type: cell-based, mouse; settings: CMT-93 cells, 72 hours, maximum tested concentration 100μM, n = 8, 95% confidence interval in parentheses
Protocol: (§2) CMT-93 murine rectal epithelial cells were maintained in Dulbecco's Modified Eagle's Medium (DMEM) with 10% fetal calf serum (FCS) and 1% penicillin-streptomycin solution (10,000U/ml). Cells were plated in 96-well tissue culture plates at a density of 2x10^2 cells per well in a volume of 100μl, and cultured for 96 hours (37°C, 5% CO2) until reaching 30% confluence. The growth medium was removed and replaced with treatment media (DMEM, 1% FCS, 1% penicillin-streptomycin solution, 100μl assay volume) supplemented with vehicle alone (DMSO), test compounds or chlorpromazine, a positive control for cytotoxicity (final concentrations from 0 to 100μM). Maximum vehicle concentration for all compounds was 0.5% DMSO. Cells were cultured with the test compounds for 72 hours before cytotoxicity measurement. Following the WST-8 assay, the medium was removed, cells were washed with 100μl PBS and then 100μl of neutral red medium (DMEM, 1% FBS and 33μg/ml neutral red dye (Sigma Aldrich #N2889) were added to each well, followed by incubation for a further 2 hours. The neutral red medium was removed, cells washed with 100μl of PBS and 100μl of destain solution (50% ethanol, 49% distilled water and 1% glacial acetic acid) were added. Each assay plate was shaken rapidly for 10 minutes before absorbance was measured at 540nm using a microplate reader. This assay measures the ability of living cells to actively take up the neutral red dye. Results were analysed using GraphPad Prism and fitted using a log-logistic model.

[4] = system: embryonated T. muris eggs; assay: In vivo establishment of infection by compound-treated embryonated eggs; design: species or system Trichuris muris; settings: for Reduction of infectivity in vivo of treated embryonated eggs: washed, 30 eggs by oral gavage to mice, worms counted day 15, versus DMSO control; for ResynActivityTmurisEggInfectivity: resynthesised compound, activity on T. muris egg infectivity (Yes/No)
Protocol: 100 infective embryonated eggs were incubated with water, water plus DMSO vehicle, or test compounds at a final concentration of 100μM for 14 days at room temperature. Eggs were then washed, re-suspended in water and 30 eggs given to a mouse via oral gavage. At day 15 post-infection, mice were culled and the number of worms present in the caecae and colon was counted. One data point was excluded: a water control individual mouse where there were technical difficulties with the oral gavage leading to the mouse regurgitating some of the T. muris eggs. It was ear marked at day of gavage and removed from the analysis.
We collected data using the same experimental design on different occasions, these are referred to as batches. Data were obtained from three batches (DMSO and water controls, batches [A,B,C]) or two batches (OX02983 [A,C], OX03153 [B,C]) with the total number of mice used, n, as follows: DMSO: 14, water: 16, OX02983: 10, OX03153: 12. The data were analysed by 2-way ANOVA (worms ~ treatment + batch + treatment * batch). There was no significant interaction effect (P = 0.14) or effect of batch (P = 0.47). We therefore combined the data from the three batches. […] We then conducted a post-hoc test using Tukey’s honest significant difference test.

[5] = WST-8 cytotoxicity assay; type: cell-based, mouse; settings: mouse, CMT-93 rectal epithelial cells; resynthesised compound, WST-8 cytotoxicity; read-out: ResynCytotoxityWST-8(EC50uM)
Protocol: as §1

[6] = Neutral red cytotoxicity assay; type: cell-based, mouse; settings: mouse, CMT-93 rectal epithelial cells; resynthesised compound, neutral red cytotoxicity; read-out: ResynCytotoxicityNeutralRed(EC50uM)
Protocol: as §2

[7] = system: un-embryonated T. muris eggs; assay: Embryonation assay; design: species or system Trichuris muris; settings: resynthesised compound, activity on T. muris embryonation (Yes/No)
Protocol: To assess whether the dihydrobenzoxazepinone compounds could also prevent embryonation, 100 un-embryonated eggs were treated with OX02983 and OX03153 at 100μM for 56 days in the dark at room temperature, then examined under an Olympus SD-ILK microscope for signs of embryonation.

[8] = system: T. trichiura; settings: cited from earlier work; for Cure rate for infection with T. trichiura: single doses of benzimidazoles
[9] = system: T. muris L1 larvae; design: method as in PMID 23433224; settings: cited from earlier work
[10] = system: L3/L4 and adult T. muris; design: method as in PMID 25261877; settings: 200μg/ml (678μM); cited from earlier work
[11] = system: Ascaris; design: method as in PMID 18430913; settings: annual treatment; cited from earlier work
[12] = system: T. muris; settings: associated with cuticular damage; cited from earlier work
[13] = system: T. muris L4 larvae; design: method as in PMID 21889548; settings: maximum concentration tested 200μg/ml or 229μM; cited from earlier work
[14] = system: T. muris; settings: associated with damage to nematode cuticle; cited from earlier work
[15] = Trichuris muris, resynthesised compound, adult T. muris paralysis, read-out: ResynActivityTmurisAdultParalysis(EC50uM)

1-(4-Methylbenzyl)-7-(pyridin-4-yl)-1,5-dihydrobenzo[e][1,4]oxazepin-2(3H)-one [OX03153]
EC50 ([1]; values of Fig 5 shown for comparison, read-out: EC50 in adult Trichuris paralysis assay): 57 µM | EC50 [2]: > 100 µM | EC50 [3]: > 100 µM | Reduction of infectivity in vivo of treated embryonated eggs ([4]; eggs soaked 14 days at 100μM): not active

Cc1ccc(CN2C(=O)COCc3cc(-c4ccncc4)ccc32)cc1 [Compound 1]
EC50 [1, 15]: 50 µM | COMBINED_SCREEN_ACTIVITY [1]: 8.615 | PRIMARY_SCREEN_MINUS_LOG_FOLD_CHANGE_MOVEMENT [1]: 10.6993 | SECONDARY_SCREEN_MINUS_LOG_FOLD_CHANGE_MOVEMENT [1]: 6.531 | EC50 at 72 h [5]: > 100 µM | EC50 at 72 h [6]: > 100 µM | ResynActivityTmurisEggInfectivity [4]: Yes | ResynActivityTmurisEmbryonation [7]: No

O=C1COCc2cc(-c3cccnc3)ccc2N1CC1CCCCC1 [Compound 2]
EC50 [1, 15]: 52 µM | COMBINED_SCREEN_ACTIVITY [1]: 11.5091 | PRIMARY_SCREEN_MINUS_LOG_FOLD_CHANGE_MOVEMENT [1]: 10.3993 | SECONDARY_SCREEN_MINUS_LOG_FOLD_CHANGE_MOVEMENT [1]: 12.6188 | EC50 at 72 h [5]: > 100 µM | EC50 at 72 h [6]: > 100 µM

O=C1COCc2cc(-c3cccnc3)ccc2N1Cc1ccc(C(F)(F)F)cc1 [Compound 3]
EC50 [1, 15]: 26 µM | COMBINED_SCREEN_ACTIVITY [1]: 11.4716 | PRIMARY_SCREEN_MINUS_LOG_FOLD_CHANGE_MOVEMENT [1]: 10.3243 | SECONDARY_SCREEN_MINUS_LOG_FOLD_CHANGE_MOVEMENT [1]: 12.6188 | EC50 at 72 h [5]: > 100 µM | EC50 at 72 h [6]: 60 µM

Cc1ccc(CN2C(=O)COCc3cc(Br)ccc32)cc1 [Compound 4]
EC50 [1, 15]: 35 µM | COMBINED_SCREEN_ACTIVITY [1]: 11.5841 | PRIMARY_SCREEN_MINUS_LOG_FOLD_CHANGE_MOVEMENT [1]: 10.5493 | SECONDARY_SCREEN_MINUS_LOG_FOLD_CHANGE_MOVEMENT [1]: 12.6188 | EC50 at 72 h [5]: 63 µM | EC50 at 72 h [6]: 47 µM

Cc1ccc(CN2C(=O)COCc3cc(-c4cccnc4)ccc32)cc1 [Compound 5]
EC50 [1, 15]: 57 µM | COMBINED_SCREEN_ACTIVITY [1]: 10.5493 | PRIMARY_SCREEN_MINUS_LOG_FOLD_CHANGE_MOVEMENT [1]: 10.5493 | EC50 at 72 h [5]: > 100 µM | EC50 at 72 h [6]: > 100 µM | ResynActivityTmurisEggInfectivity [4]: No | ResynActivityTmurisEmbryonation [7]: No

c1ccc([C@H]2CN3CCSC3=N2)cc1 [Levamisole, reference compound]
EC50 ([1]; Trichuris muris, single adult worms, 24 hours incubation, automated motility assay, EC50 ± standard error, n = 5 (OX03144 n = 10), read-out: EC50, attenuation of ex vivo T. muris adult motility): 8 µM | Single-dose cure rate, trichiuriasis ([8]; single dose, no reference given): 9%

COC(=O)Nc1nc2ccc(C(=O)c3ccccc3)cc2[nH]1 [Mebendazole]
Activity against T. muris L1 larvae ([9]; maximum concentration tested 50μg/ml or 169μM): not active | Activity against L3/L4 and adult T. muris [10]: active | Cure rate for infection with T. trichiura [8]: 36% | Cure rate, Ascaris [11]: up to 95%

Cc1ccc(CN2C(=O)COCc3cc(-c4ccncc4)ccc32)cc1 [OX02983, 1-(4-Methylbenzyl)-7-(pyridin-4-yl)-1,5-dihydrobenzo[e][1,4]oxazepin-2(3H)-one]
EC50 ([1]; Trichuris muris, values of Fig 5 shown for comparison, read-out: EC50 in adult Trichuris paralysis assay): 50 µM | EC50 ([2]; Mus musculus, CMT93): > 100 µM | EC50 ([3]; Mus musculus, CMT93): > 100 µM | Median worms establishing infection ([4]; eggs soaked 14 days at 100μM, 30 eggs by oral gavage, day 15 post-infection): 5.5 worms | Reduction of infectivity in vivo of treated embryonated eggs ([4]; eggs soaked 14 days at 100μM): ~54%

CCCSc1ccc2nc(NC(=O)OC)[nH]c2c1 [albendazole]
Cure rate for infection with T. trichiura [8]: 28% | Cure rate, Ascaris [11]: up to 95%

COc1c2ccoc2cc2oc(=O)ccc12 [bergapten]
Activity against T. muris [12]: activity against T. muris

C/C=C/c1cc(OC)c2c(c1)OCO2 [isomyristicin]
Activity against T. muris [12]: activity against T. muris

O=c1cc(-c2ccc(O)c(O)c2)oc2cc(O)cc(O)c12 [luteolin]
Activity against T. muris [12]: activity against T. muris

CN1CCCN=C1/C=C/c1cccc(O)c1.O=C(O)c1cc2ccccc2c(Cc2c(O)c(C(=O)O)cc3ccccc23)c1O [oxantel pamoate]
Single-dose cure rate, T. trichiura ([8]; children, optimal dose, dose-ranging study): 60%

Ivermectin
Activity against T. muris L4 larvae [13]: not active | Activity against T. muris L1 larvae ([9]; maximum concentration tested 50μg/ml or 57μM): not active

ficin
Effect on motility of T. muris parasites in vitro [14]: rapidly reduce motility

B1: papain (protein, UniProt P00784 134-345, looked up)
Papain: IPEYVDWRQKGAVTPVKNQGSCGSCWAFSAVVTIEGIIKIRTGNLNEYSEQELLDCDRRSYGCNGGYPWSALQLVAQYGIHYRNTYPYEGVQRYCRSREKGPYAAKTDGVRQVQPYNEGALLYSIANQPVSVVLEAAGKDFQLYRGGIFVGPCGNKVDHAVAAVGYGPNYILIKNSWGTGWGENGYIRIKRGTGNSYGVCGLYTSSFYPVKN
notes: purified protease
Effect on motility of T. muris parasites in vitro [14]: rapidly reduce motility
